Results: patent US8586607B2, “Compounds for the treatment of metabolic diseases” (Syddansk Universitet, priority 2008, dated 2013)

The compounds below were run against human GPR40 (Homo sapiens, UniProt O14842) (assay: Calcium mobilization assay, agonistic activity on GPR40). Conditions: cells expressing human GPR40 (hGPR40-1321N1).
Type: cell-based
Description: Cell Culture and Transfection. 1321N1 cells stably transfected with the human GPR40 were kindly provided by Euroscreen (Gosselies, Belgium). hGPR40-1321N1 cells were grown in Dulbecco's modified Eagle's medium supplemented with 10% (v/v) heat-inactivated fetal calf serum, 1% sodium pyruvate, 100 U/ml penicillin, 100 μg/ml streptomycin, and 400 μg/ml G418. 1321N1, HEK293 cells were grown in Dulbecco's modified Eagle's medium supplemented with 10% (v/v) heat-inactivated fetal calf serum, 1% sodium pyruvate, 100 U/ml penicillin, and 100 μg/ml streptomycin. All cells were kept at 37° C. in a 5% CO2 atmosphere. […]
Calcium Mobilization Assays. Calcium measurements were performed using a NOVOstar® microplate reader with a built-in pipetor (BMG LabTech, Offenburg, Germany). Cells were seeded in 96-well tissue-culture plates at a density of 30,000 cells per well. […] For testing of agonists, 20 μl of a ten-fold concentrated test compound solution was injected sequentially into separate wells and fluorescence was measured at 520 nm (bandwidth 25 nm) for 50 intervals of 0.4 seconds each. […] Concentration-inhibition curves in the presence of the test compounds were obtained by preincubating the cells with the compounds for 30 min at 37° C. prior to injection of agonist.

Sequence of human GPR40 (O14842 whole entry): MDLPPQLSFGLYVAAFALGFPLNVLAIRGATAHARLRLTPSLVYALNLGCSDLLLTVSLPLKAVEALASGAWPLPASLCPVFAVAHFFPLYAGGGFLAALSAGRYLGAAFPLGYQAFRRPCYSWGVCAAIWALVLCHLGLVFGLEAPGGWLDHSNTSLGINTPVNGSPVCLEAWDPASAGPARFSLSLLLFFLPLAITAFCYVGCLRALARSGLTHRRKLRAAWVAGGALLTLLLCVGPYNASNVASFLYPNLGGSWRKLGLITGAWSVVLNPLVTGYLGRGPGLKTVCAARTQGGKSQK

Question: How did the “GPR40 agonistic activity (pEC50)” value turn out when `Cc1cccc(C#Cc2ccc(CCC(=O)O)cc2)c1C` [Example A16, 3-(4-((2,3-Dimethylphenyl)ethynyl)phenyl)propanoic acid] was run?
Answer: 7.06

Question: Which “GPR40 agonistic activity (pEC50)” value does the source give for `O=C(O)CCc1ccc(C#Cc2ccccc2-c2ccccc2)cc1` [Example A40, 3-(4-(Biphenyl-2-ylethynyl)phenyl)propanoic acid] here?
Answer: 6.00

Question: With `Cc1cccc(C#Cc2ccc(CCC(=O)O)cc2)c1` [Example A7, 3-(4-(m-Tolylethynyl)phenyl)propanoic acid] as the compound, how does the “GPR40 agonistic activity (pEC50)” value read?
Answer: 7.36

Question: Which “GPR40 agonistic activity (pEC50)” value does the source give for `O=C(O)CCc1ccc(C#Cc2cccc(CO)c2)cc1` [Example A8, 3-(4-((3-(Hydroxymethyl)phenyl)ethynyl)phenyl)propanoic acid] here?
Answer: 6.05

Question: For `Cc1cc(C#Cc2ccc(CCC(=O)O)cc2)ccn1` [Example A32, 3-(4-((2-Methylpyridin-4-yl)ethynyl)phenyl)propanoic acid], which “GPR40 agonistic activity (pEC50)” value is on record?
Answer: 5.95

Question: For `O=C(O)CCc1ccc(C#Cc2cccc(C(F)(F)F)c2)cc1` [Example A14, 3-(4-((3-(Trifluoromethyl)phenyl)ethynyl)phenyl)propanoic acid], which “GPR40 agonistic activity (pEC50)” value is on record?
Answer: 7.05

Question: `O=C(O)CCc1ccc(C#Cc2ccccc2O)cc1` [Example A58, 3-(4-((2-Hydroxyphenyl)ethynyl)phenyl)propanoic acid] was tested. Which “GPR40 agonistic activity (pEC50)” value did it give?
Answer: 4.79

Question: How did the “GPR40 agonistic activity (pEC50)” value turn out when `Cc1ccccc1C#Cc1ccc(CCC(=O)O)cc1` [Example A9, 3-(4-(o-Tolylethynyl)phenyl)propanoic acid] was run?
Answer: 7.49

Question: How did the “GPR40 agonistic activity (pEC50)” value turn out when `N#Cc1cccc(C#Cc2ccc(CCC(=O)O)cc2)c1` [Example A11, 3-(4-((3-Cyanophenyl)ethynyl)phenyl)propanoic acid] was run?
Answer: 7.04

Question: Which “GPR40 agonistic activity (pEC50)” value does the source give for `O=C(O)CCc1ccc(C#Cc2cccc(O)c2)cc1` [Example A52, 3-(4-((3-Hydroxyphenyl)ethynyl)phenyl)propanoic acid] here?
Answer: 6.35

Question: For `O=C(O)C1CC1c1ccc(C#Cc2cc(Cl)nc(Cl)c2)cc1` (stereo not drawn) [Example A35, 2-(4-((2,6-Dichloropyridin-4-yl)ethynyl)phenyl)cyclopropanecarboxylic acid], which “GPR40 agonistic activity (pEC50)” value is on record?
Answer: 7.37

Question: `CC(=O)c1ccccc1C#Cc1ccc(CCC(=O)O)cc1` [Example A53, 3-(4-((2-Acetylphenyl)ethynyl)phenyl)propanoic acid] was tested. Which “GPR40 agonistic activity (pEC50)” value did it give?
Answer: 6.73

Question: `Cc1cccc(C)c1C#Cc1ccc(CCC(=O)O)cc1` [Example A50, 3-(4-((2,6-Dimethylphenyl)etnynyl)phenyl)propanoic acid] was tested. Which “GPR40 agonistic activity (pEC50)” value did it give?
Answer: 6.38

Question: How did the “GPR40 agonistic activity (pEC50)” value turn out when `Nc1cccc(C#Cc2ccc(CCC(=O)O)cc2)c1` [Example A17, 3-(4-((3-Aminophenyl)ethynyl)phenyl)propanoic acid] was run?
Answer: 5.96

Question: How did the “GPR40 agonistic activity (pEC50)” value turn out when `C#Cc1cccc(C#Cc2ccc(CCC(=O)O)cc2)c1` [Example A18, 3-(4-((3-Ethynylphenyl)ethynyl)phenyl)propanoic acid] was run?
Answer: 6.81

Question: How did the “GPR40 agonistic activity (pEC50)” value turn out when `COc1ccccc1C#Cc1ccc(CCC(=O)O)cc1` [Example A51, 3-(4-((2-Methoxyphenyl)ethynyl)phenyl) acid] was run?
Answer: 6.66

Question: How did the “GPR40 agonistic activity (pEC50)” value turn out when `O=C(O)CCc1ccc(C#Cc2ccccc2CO)cc1` [Example A59] was run?
Answer: 6.24

Question: `O=Cc1cccc(C#Cc2ccc(CCC(=O)O)cc2)c1` [Example A13, 3-(4-((3-Formylphenyl)ethynyl)phenyl)propanoic acid] was tested. Which “GPR40 agonistic activity (pEC50)” value did it give?
Answer: 6.45

Question: With `O=C(O)CCc1ccc(C#Cc2ncccc2[N+](=O)[O-])cc1` [Example A34, 3-(4-((3-Nitropyridin-2-yl)ethynyl)phenyl)propanoic acid] as the compound, how does the “GPR40 agonistic activity (pEC50)” value read?
Answer: 4.96

Question: With `O=C(O)CCc1ccc(C#Cc2ccccc2)cc1` [Example A5, 3-(4-(Phenylethynyl)phenyl)propanoic acid] as the compound, how does the “GPR40 agonistic activity (pEC50)” value read?
Answer: 7.02

Question: How did the “GPR40 agonistic activity (pEC50)” value turn out when `Cc1cc(C)cc(C#Cc2ccc(CCC(=O)O)cc2)c1` [Example A15, 3-(4-((3,5-Dimethylphenyl)ethynyl)phenyl)propanoic acid] was run?
Answer: 7.13

Question: `CCc1ccccc1C#Cc1ccc(CCC(=O)O)cc1` [Example A30, 3-(4-((2-Ethylphenyl)ethynyl)phenyl)propanoic acid] was tested. Which “GPR40 agonistic activity (pEC50)” value did it give?
Answer: 7.05

Same assay, conditions: cells expressing human GPR40 (hGPR40-1321N1), read-out: GPR40 agonistic activity (pEC50) (converted)

Question: For `O=C(O)CCc1ccc(C#Cc2cc(Cl)nc(Cl)c2)cc1` [Example A33, 3-(4-((2,6-Dichloropyridin-4-yl)ethynyl)phenyl)propanoic acid], which EC50 is on record?
Answer: 56.2 nM

Question: How did the EC50 turn out when `O=C(O)CCc1ccc(C#Cc2cccnc2)cc1` [Example A21, 3-(4-(Pyridin-3-ylethynyl)phenyl)propanoic acid] was run?
Answer: 2750 nM

Question: `O=C(O)CCc1ccc(C#Cc2cccc(OCc3ccccc3)c2)cc1` [Example A55, 3-(4-((3-(Benzyloxy)phenyl)ethynyl)phenyl)propanoic acid] was tested. Which EC50 did it give?
Answer: 525 nM

Question: With `O=C(O)CCc1ccc(C#Cc2ccccn2)cc1` [Example A20, 3-(4-(Pyridin-2-ylethynyl)phenyl)propanoic acid] as the compound, how does the EC50 read?
Answer: 8130 nM

Question: `Cc1ccc(C#Cc2ccc(C3CC3C(=O)O)cc2)cc1` (stereo not drawn) [Example A38, 2-(4-(p-Tolylethynyl)phenyl)cyclopropanecarboxylic acid] was tested. Which EC50 did it give?
Answer: 309 nM

Question: Which EC50 does the source give for `O=C(O)CCc1ccc(C#Cc2ccnc(Cl)c2)cc1` [Example A22, 3-(4-((2-Chloropyridin-4-yl)ethynyl)phenyl)propanoic acid] here?
Answer: 115 nM

Question: How did the EC50 turn out when `Cc1ccccc1C#Cc1ccc(OCC(=O)O)cc1` [Example A2, 2-(4-(o-Tolylethynyl)phenoxy)acetic acid] was run?
Answer: 3630 nM

Question: With `O=C(O)CCc1ccc(C#Cc2cccc3ccccc23)cc1` [Example A6, 3-(4-(1-Naphthylethynyl)phenyl)propanoic acid] as the compound, how does the EC50 read?
Answer: 85.1 nM

Question: For `Cc1ccc(C#Cc2ccc(OCC(=O)O)cc2)cc1` [Example A3, 2-(4-(p-Tolylethynyl)phenoxy)acetic acid], which EC50 is on record?
Answer: 29500 nM

Question: For `C=CCOc1cccc(C#Cc2ccc(CCC(=O)O)cc2)c1` [Example A57, 3-(4-((3-(Allyloxy)phenyl)ethynyl)phenyl)propanoic acid], which EC50 is on record?
Answer: 145 nM

Question: For `O=C(O)COc1ccc(C#Cc2ccc(CO)cc2)cc1` [Example A26, 2-(4-((4-(Hydroxymethyl)phenyl)ethynyl)phenoxy)ethanoic acid], which EC50 is on record?
Answer: 112000 nM

Question: Which EC50 does the source give for `O=C(O)COc1ccc(C#Cc2cccc(O)c2)cc1` [Example A24, 2-(4-((3-Hydroxyphenyl)ethynyl)phenoxy)ethanoic acid] here?
Answer: 4790 nM

Question: Which EC50 does the source give for `O=C(O)CCc1ccc(C#Cc2cccc(-c3cn(Cc4ccccc4)nn3)c2)cc1` [Example A19, 3-(4-((3-(1-Benzyl-1H-1,2,3-triazol-4-yl)phenyl)ethynyl)phenyl)propanoic acid] here?
Answer: 1910 nM

Question: How did the EC50 turn out when `Cc1cccc(C#Cc2ccc(CCC(=O)O)cc2)n1` [Example A23, 3-(4-((6-Methylpyridin-2-yl)ethynyl)phenyl)propanoic acid] was run?
Answer: 3800 nM

Question: For `C#CCOc1cccc(C#Cc2ccc(CCC(=O)O)cc2)c1` [Example A56, 3-(4-((3-(Prop-2-ynyloxy)phenyl)ethynyl)phenyl)propanoic acid], which EC50 is on record?
Answer: 77.6 nM

Question: For `Cc1cccc(C#Cc2ccc(OCC(=O)O)cc2)c1` [Example A4, 2-(4-(m-Tolylethynyl)phenoxy)acetic acid], which EC50 is on record?
Answer: 562 nM

Question: With `Cc1ccccc1C#Cc1ccc(C2CC2C(=O)O)cc1` (stereo not drawn) [Example A36, 2-(4-(o-Tolylethynyl)phenyl)cyclopropanecarboxylic acid] as the compound, how does the EC50 read?
Answer: 138 nM

Question: How did the EC50 turn out when `O=C(O)COc1ccc(C#Cc2ccccc2)cc1` [Example A1, 2-(4-(Phenylethynyl)phenoxy)acetic acid] was run?
Answer: 1320 nM

Question: `O=C(O)[C@@H]1C[C@H]1c1ccc(C#Cc2ccccc2)cc1` (relative stereo) [Example A29, trans-2-(4-(Phenylethynyl)phenyl)cyclopropanecarboxylic acid] was tested. Which EC50 did it give?
Answer: 145 nM

Question: Which EC50 does the source give for `Cc1ccc(S(=O)(=O)OCCc2ccccc2C#Cc2ccc(CCC(=O)O)cc2)cc1` [Example A61, 3-(4-((2-(2-(Tosyloxy)ethyl)phenyl)ethynyl)phenyl)propanoic acid] here?
Answer: 316 nM

Question: `O=C(O)COc1ccc(C#Cc2ccc(O)cc2)cc1` [Example A25, 2-(4-((4-Hydroxyphenyl)ethynyl)phenoxy)ethanoic acid] was tested. Which EC50 did it give?
Answer: 132000 nM

Question: With `Cc1cccc(C#Cc2ccc(C3CC3C(=O)O)cc2)c1` (stereo not drawn) [Example A37, 2-(4-(m-Tolylethynyl)phenyl)cyclopropanecarboxylic acid] as the compound, how does the EC50 read?
Answer: 93.3 nM

Question: `O=C(O)CCc1ccc(C#Cc2cccc([N+](=O)[O-])c2)cc1` [Example A12, 3-(4-((3-Nitrophenyl)ethynyl)phenyl)propanoic acid] was tested. Which EC50 did it give?
Answer: 57.5 nM
